# How the values were obtained:
# [1] = biological target: T1, topoisomerase I (Homo sapiens, UniProt P11387); settings: cited from earlier work
# T1 sequence (P11387 1-765): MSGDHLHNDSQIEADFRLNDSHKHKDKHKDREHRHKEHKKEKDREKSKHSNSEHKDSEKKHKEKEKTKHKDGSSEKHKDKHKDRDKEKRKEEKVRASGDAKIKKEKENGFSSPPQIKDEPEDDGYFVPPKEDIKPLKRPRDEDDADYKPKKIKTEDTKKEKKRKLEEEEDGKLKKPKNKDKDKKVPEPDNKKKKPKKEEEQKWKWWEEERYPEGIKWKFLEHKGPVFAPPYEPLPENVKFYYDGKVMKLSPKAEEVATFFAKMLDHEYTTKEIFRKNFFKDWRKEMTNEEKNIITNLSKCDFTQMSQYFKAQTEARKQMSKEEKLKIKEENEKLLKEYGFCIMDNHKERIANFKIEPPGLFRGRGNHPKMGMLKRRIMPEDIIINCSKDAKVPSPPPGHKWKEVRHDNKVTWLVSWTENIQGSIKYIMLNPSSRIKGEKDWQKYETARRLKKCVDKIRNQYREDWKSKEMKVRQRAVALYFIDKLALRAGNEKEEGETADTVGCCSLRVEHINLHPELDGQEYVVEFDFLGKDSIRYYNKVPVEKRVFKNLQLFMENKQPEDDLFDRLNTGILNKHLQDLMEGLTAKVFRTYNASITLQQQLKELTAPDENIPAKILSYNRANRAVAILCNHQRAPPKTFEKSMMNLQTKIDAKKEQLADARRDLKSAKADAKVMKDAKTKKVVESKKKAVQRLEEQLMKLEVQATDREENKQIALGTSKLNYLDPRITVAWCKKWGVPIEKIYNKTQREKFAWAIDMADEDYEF
# [2] = tested on: HER2-positive human breast cancer ST1616B/TDR; settings: mouse, in vivo
# Experimental: (§1) Mouse: 6- to 12-week-old female immunodeficient Crl:Nu(Ncr)-Foxn1^Nu mice (Charles River Laboratories Japan, Inc.) were subjected to the experiment.
# (§2) Assay and calculation expression: The major axis and minor axis of tumor were measured twice a week by using an electronic digital caliper, and the tumor volume (mm^3) was calculated. The calculation expression is as shown below. Tumor volume (mm^3)=0.52×Major axis (mm)×[Minor axis ([…])]^2
# (§3) Tumor excised from a patient with HER2-positive breast cancer that acquired resistance after treatment with T-DM1 was maintained at several passages by transplantation to female immunodeficient mice. […] ST1616B/TDR is tumor derived from a patient who received T-DM1 by continuous administration for 13 months, and ST1360B/TDR is a tumor derived from a patient who received T-DM1 by continuous administration for 3 months.
# (§4) A tumor section of the solid tumor was subcutaneously transplanted to the side of the body of each female immunodeficient mouse, and the mice were randomly grouped when the tumor volume reached about 200 mm^3.
# [3] = tested on: HER2-positive human breast cancer ST1360B/TDR; settings: mouse, in vivo
# Experimental: as §1, §2, §3, §4
# [4] = tested on: Breast cancer or gastric adenocarcinoma/esophagogastric junction adenocarcinoma; settings: human, in vivo
# From the text: Open-label, Phase 1 dose escalation study.
# Part 1 study: Dose escalation study (conducted in Japan)
# Breast cancer or gastric adenocarcinoma/esophagogastric junction adenocarcinoma
# Objective response rate (ORR; complete response (CR)+partial response (PR)).
# Disease control rate (DCR; CR+PR+stable disease (SD)).
molecule,measurement,setting,value
CC[C@@]1(O)C(=O)OCc2c1cc1n(c2=O)Cc2c-1nc1cc(F)c(C)c3c1c2[C@@H](NC(=O)CO)CC3 [Compound 1],topoisomerase I inhibitory effect,"[1]; Ogitani Y. et al., Clinical Cancer Research, 2016",confirmed to have a topoisomerase I inhibitory effect
"CC[C@@]1(O)C(=O)OCc2c1cc1n(c2=O)Cc2c-1nc1cc(F)c(C)c3c1c2[C@@H](N)CC3 [exatecan, (1S,9S)-1-amino-9-ethyl-5-fluoro-1,2,3,9,12,15-hexahydro-9-hydroxy-4-methyl-10H,13H-benzo[de]pyrano[3′,4′:6,7]indolizino[1,2-b]quinolin-10,13-dione]",inhibitory activity on topoisomerase I,[1]; compared with SN-38 and topotecan,higher than SN-38
T-DM1,growth of the tumor (tumor volume),[2],did not inhibit the growth
same,growth of the tumor (tumor volume),[3],did not inhibit the growth
same,DCR,[4],64%
same,ORR,[4],18%

# From patent US12698342B2, “Therapy for drug-resistant cancer by administration of anti-HER2 antibody/drug conjugate” (DAIICHI SANKYO COMPANY, LIMITED, priority 2016, dated 2026)
